From patent US9683019B2, “Cyclic polypeptides for the treatment of heart failure” (priority 2013, dated 2017) come the findings set out here.

Data set [1] has as its target T1, hAPJ (Homo sapiens, UniProt P35414).
T1 sequence (P35414 1-380): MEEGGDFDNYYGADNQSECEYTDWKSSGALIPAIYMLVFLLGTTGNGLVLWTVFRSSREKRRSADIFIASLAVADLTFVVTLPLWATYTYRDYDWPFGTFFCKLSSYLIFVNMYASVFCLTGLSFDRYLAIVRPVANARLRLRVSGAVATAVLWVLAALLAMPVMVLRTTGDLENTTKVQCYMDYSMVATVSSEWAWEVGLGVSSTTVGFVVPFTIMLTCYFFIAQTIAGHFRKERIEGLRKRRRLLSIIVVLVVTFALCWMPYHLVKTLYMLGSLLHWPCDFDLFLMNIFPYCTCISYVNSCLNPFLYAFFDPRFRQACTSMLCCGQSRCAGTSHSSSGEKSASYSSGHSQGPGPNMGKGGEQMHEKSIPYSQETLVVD
Nature of the data set: hAPJ Calcium Flux Assay. The class given is cell-based. Particulars: Chem-5 APJ stable cells, calcium flux stimulation; read-out: hAPJ Ca2+ Flux EC50. How it is done:
Chem-5 APJ stable cells (Millipore # HTS068C) were plated in 384-well format with 10,000 cells/well in 25 ul growth media, then grown 24 hours in a 37° C. tissue culture incubator. One hour before the assay, 25 ul/well FLIPR Calcium 4 dye (Molecular Devices R8142) with 2.5 mM probenecid was added, and cells were incubated one hour in a 37° C. tissue culture incubator. Peptides were solubilized in HBSS, HEPES & 0.1% BSA buffer, and serially-diluted 10-fold, from 50 uM to 5 pM, in triplicate. FLIPR Tetra was used to add peptide to the cells with dye (1:5, for final peptide concentrations ranging from 10 uM to 1 pM). FLIPR dye inside the cells emitted fluorescence after binding to calcium, while fluorescence from outside the cells was masked. […] Readings were done for 3 minutes total, beginning 10 seconds before the peptide addition. Maximum-minimum values were calculated and plotted for each peptide concentration, and GraphPad prism software was used to calculate EC50 values at the curve inflection points, for calcium flux stimulation by peptides.
Background: Calcium flux is commonly read through the fluorescence of an indicator in the cells.

A short description of data set [2]: Surrogate Activity-Based Plasma Stability Assay. The class given is in vitro ADME. Particulars: rat. The source says: Surrogate Activity-Based Plasma Stability Assay:
2) Calculate slope of value above and […]

Data set [3] can be described thus: Plasma Stability Assay (LC-MS). The class given is in vitro ADME. Particulars: male, Sprague-Dawley, heparinized rat plasma, 37° C., read-out: Plasma stability t½. Here is the method: Plasma Stability Assay: Materials: Working solution: 1 mg/mL test article is prepared in Milli-Q water Extraction solution: Methanol:Acetonitrile:Water (1:1:1) with 0.1% Formic Acid and 400 ng/mL Glyburide. Plasma: Male Sprague-Dawley rat plasma (with sodium heparin), purchased from Bioreclamation LLC (Liverpool, N.Y.). Test article was prepared in one of the following biological matrices: heparinized rat plasma, heparinized rat whole blood or lung homogenate. […] Lung homogenate samples were prepared by diluting lung homogenate to 1 mg/ml protein concentration with phosphate buffered saline (PBS), followed by addition of 5 uL Working solution to 995 uL diluted lung homogenate. The samples were incubated at 37° C. with gentle shaking (65˜75 rpm) in a water bath incubator. […] Afterwards, a pipetting device (Tecan Temo) was used to transfer the supernatants to another plate and add 50 uL of water to all samples. The plate was vortexed prior to LC-MS analysis. […] The samples are incubated at 37° C. with gentle shaking (65˜75 rpm) in a water bath incubator. […] The reaction mixture is incubated at 37° C. for 1 hour. After completion of reaction, protein precipitation is performed using 300 uL of acetonitrile. […] Afterwards, a pipetting device (Tecan Temo) is used to transfer 125 uL supernatants to another plate and adds 50 uL of water to all samples. […]

Molecules are shown by their SMILES. Where a SMILES comes first, the peptide text is derived from it. Bridges are numbered along the chain shown (N, C = ends). [ ]: non-standard residue; d: D form. NMeF = CN[C@@H](Cc1ccccc1)C(=O)O; pGlu = O=C1CC[C@@H](C(=O)O)N1; hCys = N[C@@H](CCS)C(=O)O; Nle = CCCC[C@H](N)C(=O)O

One may read the EC50 as the concentration needed to bring the measured effect to its halfway point. In the case of `CCCC[C@H](NC(=O)[C@@H]1CCCN1C(=O)CNC(=O)[C@H](CCCCN)NC(=O)[C@@H]1CSSC[C@H](NC(=O)[C@@H]2CCCN2C(=O)[C@H](CCCNC(=N)N)NC(=O)[C@@H]2CCC(=O)N2)C(=O)N[C@@H](CC(C)C)C(=O)N[C@@H](CO)C(=O)N1)C(=O)N1CCC[C@H]1C(=O)N(C)[C@@H](Cc1ccccc1)C(=O)O` [Example 29, pE-R-P-C*-L-S-C*-K-G-P-Nle-P-(N-Me)F-OH] ([pGlu]RPCLSCKGP[Nle]P[NMeF]-OH; disulfide 4-7), the 50% effective concentration (EC50) in data set [1] amounted to 4.2 nM. For the same compound, the half-life in data set [2] was determined as 11.8 h.

As for `CCCC[C@@H](NC(=O)[C@@H]1CCCN1C(=O)CNC(=O)[C@H](CCCCN)NC(=O)[C@@H]1CSSC[C@H](NC(=O)[C@@H]2CCCN2C(=O)[C@H](CCCNC(=N)N)NC(=O)[C@@H]2CCC(=O)N2)C(=O)N[C@@H](CC(C)C)C(=O)N[C@@H](CO)C(=O)N1)C(=O)NCCc1ccccc1` [Example 32, pE-R-P-C*-L-S-C*-K-G-P-(D-Nle)-NH(Phenethyl)], in data set [3], the half-life came out at 6.28 h. In data set [2], the “Surrogate Activity based Plasma stability t½” value is over 16.67 h and the half-life was over 16.7 h.

For the compound `CC(C)C[C@@H]1NC(=O)[C@@H](NC(=O)[C@@H]2CCCN2C(=O)[C@H](CCCNC(=N)N)NC(=O)[C@@H]2CCC(=O)N2)CCSSC[C@@H](C(=O)N[C@@H](CCCCN)C(=O)NCC(=O)N2CCC[C@H]2C(=O)N[C@H](Cc2ccccc2)C(=O)N[C@H](C)C(=O)N[C@H](Cc2ccccc2)C(=O)O)NC(=O)[C@H](CO)NC1=O` [Example 36, pE-R-P-hC*-L-S-C*-K-G-P-f-a-f-OH] ([pGlu]RP[hCys]LSCKGP[dF][dA][dF]-OH; disulfide 4-7), the EC50 in data set [1] worked out at 4.2 nM. Moreover, the half-life in data set [2] was 0.567 h.
